In patent publication US5061691A, “Enkephalin analogs” (Kabushiki Kaisha Vitamin Kenkyuso, priority 1987, dated 1991):
Like-named read-outs stand apart in the source and are kept apart here. Peptide text beside a SMILES is read from it.

How the values were obtained:
[1] = target: T1, mouse vas deferens (MVD) (Mus musculus, UniProt P32300); type: cell-based
[2] = test system: μ and δ opiate receptors; conditions: Lutz et al., Eur. J. Pharmacol. 111, 257 (1985); cited from earlier work
[3] = target: T1, mouse vas deferens (MVD); conditions: cited from earlier work
[4] = target: guinea pig ileum (GPI) (Cavia porcellus, UniProt P97266); conditions: value from Shimohigashi et al., Peptide Chemistry 1985 p. 51 (1986); cited from earlier work
Chain of guinea pig ileum (GPI) (P97266 whole entry): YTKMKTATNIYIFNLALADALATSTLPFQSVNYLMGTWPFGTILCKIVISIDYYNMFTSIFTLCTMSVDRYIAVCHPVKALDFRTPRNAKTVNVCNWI

[5] = i.c.v. or i.v. administration; cited from earlier work

T1 sequence (P32300 whole entry): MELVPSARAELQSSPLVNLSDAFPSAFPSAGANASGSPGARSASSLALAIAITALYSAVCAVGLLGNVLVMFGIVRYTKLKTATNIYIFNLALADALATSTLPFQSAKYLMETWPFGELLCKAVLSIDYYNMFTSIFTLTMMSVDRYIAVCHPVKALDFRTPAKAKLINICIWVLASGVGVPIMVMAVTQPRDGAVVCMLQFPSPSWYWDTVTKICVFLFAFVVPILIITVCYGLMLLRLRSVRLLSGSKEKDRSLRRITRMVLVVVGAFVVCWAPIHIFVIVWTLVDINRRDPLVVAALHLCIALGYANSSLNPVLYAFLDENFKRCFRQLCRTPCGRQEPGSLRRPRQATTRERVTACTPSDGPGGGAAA

NC(=O)[C@@H]1CCCN1C(=O)[C@H](Cc1ccccc1)NC(=O)[C@@H]1CCCN1C(=O)[C@@H](N)Cc1ccc(O)cc1 [Morphiceptin, H--Tyr--Pro--Phe--Pro--NH2] (H-YPFP-NH2)
Activity ratio MVD/GPI [1]: 5.7

(H--Tyr--D--Ala--Gly--NH--CH2 --)2 [DTRE2]
selectivity for μ than for δ in receptor binding assay [2]: about 400 fold
opiate activity and selectivity in bioassays (GPI and MVD assays) ([3]; GPI and MVD bioassays, Shimohigashi et al. (1986)): morphine-like activities and greater selectivity for μ than for δ
Activity ratio MVD/GPI ([3]; ratio of IC50, from Shimohigashi et al., Peptide Chemistry 1985 p. 51 (1986)): 6.1
IC50 ([3]; value from Shimohigashi et al., Peptide Chemistry 1985 p. 51 (1986)): 2700 nM
IC50 [4]: 440 nM

β -Endorphin: consists of 31 amino acid residues and is a fragment of β -lipotropin (YGGFMTSEKSQTPLVTLFKNAIIKNAYKKGE; Beta-endorphin; UniProt P01189 237-267, looked up)
analgesic activity [5]: marked and long-lived analgesic activity
